Data reported in US9242943B2, “1,4 oxazines as BACE1 and/or BACE2 inhibitors” (SIENA BIOTECH S.P.A., priority 2011, dated 2016).
pIC50: −log10 of the molar value.

How the values were obtained:
[1] = target: BACE1 (Homo sapiens (Human), UniProt P56817); test: Cellular Aβ-lowering assay (Aβ40 ELISA, HEK293 cells expressing human APP695); format: cell-based; conditions: HEK293 cells stably transfected with human APP695; 18-20 hrs incubation; Aβ40 in supernatant; read-out: BACE1 cell act. Aβ40 IC50
Protocol: Cellular Aβ-Lowering Assay:
Human HEK293 cells which are stably transfected with a vector expressing a cDNA of the human APP wt gene (APP695) were used to assess the potency of the compounds in a cellular assay. The cells were seeded in 96-well microtiter plates in cell culture medium (Iscove, plus 10% (v/v) fetal bovine serum, glutamine, penicillin/streptomycin) to about 80% confluence and the compounds were added at a 10× concentration in 1/10 volume of medium without FCS containing 8% DMSO (final concentration of DMSO was kept at 0.8% v/v). After 18-20 hrs incubation at 37° C. and 5% CO2 in a humidified incubator the culture supernatant was harvested for the determination of […] concentrations. 96well ELISA plates (e.g., Nunc MaxiSorb) were coated with monoclonal antibody which specifically recognize the C-terminal end of […] (Brockhaus et al., NeuroReport 9, 1481-1486; 1998). After blocking of non-specific binding sites with e.g. 1% BSA and washing, the culture supernatants were added in suitable dilutions together with a horseradish peroxidase-coupled Aβ detection antibody (e.g., antibody 4G8, Senetek, Maryland Heights, Mo.) and incubated for 5 to 7 hrs. Subsequently the wells of the microtiter plate were washed extensively with Tris-buffered saline containing 0.05% Tween 20 and the assay was developed with tetramethylbenzidine/H2O2 in citric acid buffer. After stopping the reaction with one volume 1 N H2SO4 the reaction was measured in an ELISA reader at 450 nm wavelength. The concentrations of Aβ in the culture supernatants were calculated from a standard curve obtained with known amounts of pure Aβ peptide.

[2] = target: BACE2 (Rattus norvegicus (Rat), UniProt Q6IE75); test: Assay for BACE inhibition by measuring cellular TMEM27 cleavage (INS-TMEM27 cells, ELISA); format: cell-based; conditions: INS-TMEM27 (INS1e-derived) cells; shed TMEM27 in supernatant; read-out: BACE2 cell act. IC50
Description: Assay for BACE Inhibition by Measuring Cellular TMEM27 Cleavage:
The assay uses the principle of inhibition of human TMEM27 cleavage by endogenous cellular BACE2 in the Ins1e rat cell line and shedding from the cell surface into the culture medium, followed by detection in an ELISA assay. Inhibition of BACE2 prevents the cleavage and shedding in a dose-dependent manner
The stable cell line “INS-TMEM27” represents an INS1e-derived cell line with inducible expression (using the TetOn system) of full-length hTMEM27 in a doxycycline-dependent manner. The cells are cultured throughout the experiment in RPMI1640 +Glutamax (Invitrogen) Penicillin/Streptomycin, 10% Fetal bovine serum, […], […], 100 micrograms/ml G418 and 100 microgram/ml hygromycin and are grown inadherent culture at 37° C. in a standard CO2 cell culture incubator.
INS-TMEM27 cells are seeded in 96-well plates. After 2 days in culture, BACE2 inhibitor is added in a range of concentrations as required by the assay and after a further two hours, doxycycline is added to a final concentration of 500 ng/ml. The cells are incubated for a further 46 hours and the supernatant harvested for detection of shed TMEM27.
An ELISA assay (using a pair of mouse anti-human-TMEM27 antibodies, raised against the extracellular domain of TMEM27) is used for detection of TMEM27 in the culture medium. An EC50 for BACE2 inhibition is calculated using the ELISA readout for each inhibitor concentration with standard curve-fitting software such as XLFit for the Excel spreadsheet program.

BACE1, sequence (P56817 46-501): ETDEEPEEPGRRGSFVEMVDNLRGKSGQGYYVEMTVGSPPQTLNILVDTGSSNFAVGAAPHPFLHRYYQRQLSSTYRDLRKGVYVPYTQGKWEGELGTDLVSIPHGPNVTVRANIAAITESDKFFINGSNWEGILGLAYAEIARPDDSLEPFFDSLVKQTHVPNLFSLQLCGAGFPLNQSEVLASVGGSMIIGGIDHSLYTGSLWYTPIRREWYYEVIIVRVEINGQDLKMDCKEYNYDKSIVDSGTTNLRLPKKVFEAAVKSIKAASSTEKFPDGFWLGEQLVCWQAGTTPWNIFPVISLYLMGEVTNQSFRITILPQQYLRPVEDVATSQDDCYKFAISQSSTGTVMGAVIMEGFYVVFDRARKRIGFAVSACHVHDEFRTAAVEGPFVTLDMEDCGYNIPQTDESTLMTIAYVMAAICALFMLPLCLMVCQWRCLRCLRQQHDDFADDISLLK
BACE2, sequence (Q6IE75 63-514): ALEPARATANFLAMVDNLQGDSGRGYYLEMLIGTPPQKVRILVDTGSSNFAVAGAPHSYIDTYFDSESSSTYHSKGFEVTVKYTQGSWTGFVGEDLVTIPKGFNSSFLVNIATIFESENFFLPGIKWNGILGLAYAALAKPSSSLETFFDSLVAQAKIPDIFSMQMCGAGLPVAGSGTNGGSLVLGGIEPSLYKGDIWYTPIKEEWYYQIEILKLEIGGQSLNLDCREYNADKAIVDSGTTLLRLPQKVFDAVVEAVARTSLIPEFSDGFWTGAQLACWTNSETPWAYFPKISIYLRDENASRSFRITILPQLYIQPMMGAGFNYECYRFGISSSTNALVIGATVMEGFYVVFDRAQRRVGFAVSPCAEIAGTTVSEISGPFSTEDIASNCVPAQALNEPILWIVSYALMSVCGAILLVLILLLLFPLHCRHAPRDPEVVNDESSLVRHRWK

Row | Molecule | pIC50 [1] | pIC50 [2]
1 | CC1(c2cccc(NCc3ccc(Cl)cc3)c2)COCC(N)=N1 (centres unmarked) [Example 2, 5-[3-(4-Chloro-benzylamino)-phenyl]-5-methyl-5,6-dihydro-2H-[1,4]oxazin-3-ylamine] | 6.35 | 
2 | CCCCNc1ccc(F)c([C@]2(C)COCC(N)=N2)c1 [Example 5, (R)-5-(5-Butylamino-2-fluoro-phenyl)-5-methyl-5,6-dihydro-2H-[1,4]oxazin-3-ylamine] | 6.47 | 
3 | CC(C)CCNc1ccc(F)c([C@]2(C)COCC(N)=N2)c1 [Example 6, (R)-5-(2-fluoro-5-(isopentylamino)phenyl)-5-methyl-5,6-dihydro-2H-1,4-oxazin-3-amine] | 5.87 | 6.22
4 | CC(C)C(C)Nc1ccc(F)c([C@]2(C)COCC(N)=N2)c1 (stereo partly drawn) [Example 8, (5R)-5-(2-fluoro-5-(3-methylbutan-2-ylamino)phenyl)-5-methyl-5,6-dihydro-2H-1,4-oxazin-3-amine] | 5.66 | 
5 | C[C@@]1(c2cc(NCC(F)(F)F)ccc2F)COCC(N)=N1 [Example 9, (R)-5-(2-fluoro-5-(2,2,2-trifluoroethylamino)phenyl)-5-methyl-5,6-dihydro-2H-1,4-oxazin-3-amine] | 6.46 | 
6 | C[C@@]1(c2cc(NCC(F)F)ccc2F)COCC(N)=N1 [Example 10, (R)-5-[5-(2,2-Difluoro-ethylamino)-2-fluoro-phenyl]-5-methyl-5,6-dihydro-2H-[1,4]oxazin-3-ylamine] | 6.39 | 
7 | C[C@@]1(c2cc(NCCC(F)(F)F)ccc2F)COCC(N)=N1 [Example 12, (R)-5-(2-fluoro-5-(3,3,3-trifluoropropylamino)phenyl)-5-methyl-5,6-dihydro-2H-1,4-oxazin-3-amine] | 5.96 | 5.54
8 | CSCCCNc1ccc(F)c([C@]2(C)COCC(N)=N2)c1 [Example 13, (R)-5-(2-fluoro-5-(3-(methylthio)propylamino)phenyl)-5-methyl-5,6-dihydro-2H-1,4-oxazin-3-amine] | 6.51 | 
9 | C[C@@]1(c2cc(NC3CCC3)ccc2F)COCC(N)=N1 [Example 14, (R)-5-(5-Cyclobutylamino-2-fluoro-phenyl)-5-methyl-5,6-dihydro-2H-[1,4]oxazin-3-ylamine] | 6.59 | 5.93
10 | C[C@@]1(c2cc(NC3CCCC3)ccc2F)COCC(N)=N1 [Example 15, (R)-5-(5-(cyclopentylamino)-2-fluorophenyl)-5-methyl-5,6-dihydro-2H-1,4-oxazin-3-amine] | 6.92 | 6.77
11 | C[C@@]1(c2cc(NC3CCOC3)ccc2F)COCC(N)=N1 (stereo partly drawn) [Example 18, (R)-5-[2-Fluoro-5-(tetrahydro-furan-3-ylamino)-phenyl]-5-methyl-5,6-dihydro-2H-[1,4]oxazin-3-ylamine] | 6.49 | 5.47
12 | C[C@@]1(c2cc(N[C@H]3CCC[C@@H]3O)ccc2F)COCC(N)=N1 [Example 19, (1S,2S)-2-(3-((R)-5-amino-3-methyl-3,6-dihydro-2H-1,4-oxazin-3-yl)-4-fluorophenylamino)cyclopentanol] | 5.92 | 5.47
13 | C[C@@]1(c2cc(N[C@H]3CCC[C@H]3O)ccc2F)COCC(N)=N1 [Example 20, (1R,2S)-2-(3-((R)-5-amino-3-methyl-3,6-dihydro-2H-1,4-oxazin-3-yl)-4-fluorophenylamino)cyclopentanol] | 6.21 | 5.64
14 | C[C@@]1(c2cc(NCC3CC3)ccc2F)COCC(N)=N1 [Example 21, (R)-5-(5-(cyclopropylmethylamino)-2-fluorophenyl)-5-methyl-5,6-dihydro-2H-1,4-oxazin-3-amine] | 6.89 | 6.55
15 | C[C@@]1(c2cc(NC[C@H]3CCCO3)ccc2F)COCC(N)=N1 [Example 22, (R)-5-(2-fluoro-5-(((R)-tetrahydrofuran-2-yl)methylamino)phenyl)-5-methyl-5,6-dihydro-2H-1,4-oxazin-3-amine] | 5.95 | 5.61
16 | CC(C)C(Nc1ccc(F)c([C@]2(C)COCC(N)=N2)c1)c1ccc(Cl)cn1 (stereo partly drawn) [Example 23, (R)-5-{5-[1-(5-Chloro-pyridin-2-yl)-2-methyl-propylamino]-2-fluoro-phenyl}-5-methyl-5,6-dihydro-2H-[1,4]oxazin-3-ylamine] | 5.43 | 5.78
17 | CC1(c2cccc(Nc3cccc4cc(Cl)cnc34)c2)COCC(N)=N1 (centres unmarked) [Example 24, [3-(5-Amino-3-methyl-3,6-dihydro-2H-[1,4]oxazin-3-yl)-phenyl]-(3-chloro-quinolin-8-yl)-amine] | 6.60 | 7.74
18 | C[C@@]1(c2cc(Nc3cccc4cc(Cl)cnc34)ccc2F)COCC(N)=N1 [Example 26, [3-((R)-5-Amino-3-methyl-3,6-dihydro-2H-[1,4]oxazin-3-yl)-4-fluoro-phenyl]-(3-chloro-quinolin-8-yl)-amine] | 6.80 | 7.11
19 | C[C@@]1(c2cc(Nc3cc(F)cc4cc(Cl)cnc34)ccc2F)COCC(N)=N1 [Example 28, [3-((R)-5-Amino-3-methyl-3,6-dihydro-2H-[1,4]oxazin-3-yl)-4-fluoro-phenyl]-(3-chloro-6-fluoro-quinolin-8-yl)-amine] | 7.36 | 
20 | C[C@@]1(c2cc(Nc3cccc4cc(OCCF)cnc34)ccc2F)COCC(N)=N1 [Example 30, [3-((R)-5-Amino-3-methyl-3,6-dihydro-2H-[1,4]oxazin-3-yl)-4-fluoro-phenyl]-[3-(2-fluoro-ethoxy)-quinolin-8-yl]-amine] | 5.32 | 
21 | C[C@@]1(c2cc(Nc3cc(F)cc4cc(OCC5CC5)cnc34)ccc2F)COCC(N)=N1 [Example 31, [3-((R)-5-Amino-3-methyl-3,6-dihydro-2H-[1,4]oxazin-3-yl)-4-fluoro-phenyl]-(3-cyclopropylmethoxy-6-fluoro-quinolin-8-yl)-amine] | 5.16 | 
22 | C[C@@]1(c2cc(Nc3cccc4cc(OCC(F)(F)F)cnc34)ccc2F)COCC(N)=N1 [Example 32, [3-((R)-5-Amino-3-methyl-3,6-dihydro-2H-[1,4]oxazin-3-yl)-4-fluoro-phenyl]-[3-(2,2,2-trifluoro-ethoxy)-quinolin-8-yl]-amine] | 5.63 | 
23 | COc1cnc2c(Nc3cccc(C4(C)COCC(N)=N4)c3)cccc2c1 (centres unmarked) [Example 37, [3-(5-Amino-3-methyl-3,6-dihydro-2H-[1,4]oxazin-3-yl)-phenyl]-(3-methoxy-quinolin-8-yl)-amine] |  | 6.92
24 | CC1(c2cccc(NC3CCc4cc(Cl)ccc43)c2)COCC(N)=N1 (centres unmarked) [Example 39, 5-[3-(5-Chloro-indan-1-ylamino)-phenyl]-5-methyl-5,6-dihydro-2H-[1,4]oxazin-3-ylamine] | 6.74 | 
25 | C[C@@]1(c2cc(Nc3ccccc3OCC(F)(F)F)ccc2F)COCC(N)=N1 [Example 42, (R)-5-{2-Fluoro-5-[2-(2,2,2-trifluoro-ethoxy)-phenylamino]-phenyl}-5-methyl-5,6-dihydro-2H-[1,4]oxazin-3-ylamine] | 5.28 | 
26 | CC1(c2cccc(Nc3ccccc3OC(F)F)c2)COCC(N)=N1 (centres unmarked) [Example 44, 5-[3-(2-Difluoromethoxy-phenylamino)-phenyl]-5-methyl-5,6-dihydro-2H-[1,4]oxazin-3-ylamine] | 6.05 | 
27 | C[C@@]1(c2cc(NCc3nn(C(F)F)cc3Cl)ccc2F)COCC(N)=N1 [Example 45, (R)-5-{5-[(4-Chloro-1-difluoromethyl-1H-pyrazol-3-ylmethyl)-amino]-2-fluoro-phenyl}-5-methyl-5,6-dihydro-2H-[1,4]oxazin-3-ylamine] | 7.77 | 
28 | CC1(c2cccc(Nc3cccc4oc(C5CC5)nc34)c2)COCC(N)=N1 (centres unmarked) [Example 46, [3-(5-Amino-3-methyl-3,6-dihydro-2H-[1,4]oxazin-3-yl)-phenyl]-(2-cyclopropyl-benzooxazol-4-yl)-amine] |  | 6.52
29 | (R)-5-{2-Fluoro-5-[2-(2-fluoro-ethoxy)-phenylamino]-phenyl}-5-methyl-5,6-dihydro-2H-[1,4]oxazin-3-ylamine [Example 43] | 5.49 | 
